Earlier results in patent publication US12201720B2, “Pharmaceutical composition comprising GHB gastro-retentive raft forming systems having trigger pulse drug release” (Tris Pharma, Inc., priority 2017, dated 2025).
Where two headings read alike, the source gives them in different places.

Settings: descriptive statement

In the case of `O=C(O)CCCO` [Sodium oxybate], the “Solubility in water / aqueous solutions” value is listed as “very soluble” and the “Solubility in water / aqueous solutions” value (listed as Sodium GHB) is listed as “highly water-soluble”.
